Here are results for 21 substances from US10517889B2, “Modulators of SMAD7 expression” (Ionis Pharmaceuticals, Inc., priority 2017, dated 2019).

Strand notation (5' to 3'): a small letter for the sugar, then the base; units joined by * are phosphorothioate-linked, units joined directly phosphodiester-linked; [ ] holds rarer units or linkages, { } end groups; capitals alone tell only the bases. k = constrained ethyl (cEt); [5mC] = 5-methylcytosine; d = 2'-deoxy (DNA)

In one series the test system is human SMAD7 mRNA. The experiment in a line: Antisense inhibition of human SMAD7 mRNA expression in Hep3B cells by 3-10-3 cEt gapmers, 10,000 nM, electroporation (Example 2). In kind it is cell-based. The note with it: Hep3B cells, electroporation with 10,000 nM antisense oligonucleotide, approximately 24 hours, RTS5062, percent inhibition of SMAD7 mRNA relative to untreated control cells. Put shortly:
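SMAD7 mRNA was measured by real-time PCR (RTS5062) with RiboGreen total-RNA normalization, about 24 h after 10,000 nM gapmer was delivered by electroporation into Hep3B cells at 20,000 per well. Gapmers were 16-mer 3-10-3 cEt, fully phosphorothioate; values are % inhibition versus untreated controls.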
Regarding “799514 (antisense kT*k[5mC]*kG*dG*dA*dG*dT*dT*dT*d[5mC]*d[5mC]*dT*d[5mC]*kA*k[5mC]*kT) [compound 799514]”, the % Inhibition (usually the change of the read-out against control, counted positive when it falls) was 40%.
In the case of “799524 (antisense kA*kT*k[5mC]*dA*dA*dG*dG*dG*d[5mC]*dA*dG*dA*dA*kG*kG*k[5mC]) [compound 799524]”, the “% Inhibition” value is recorded as 23%.
With “799525 (antisense kA*kG*kG*dT*dT*dT*dG*dG*dG*dT*dT*dG*dG*kA*k[5mC]*kT) [compound 799525]”, the “% Inhibition” value came out at 8%.
On the same count and under the same terms, the same measure for “799526 (kA*kA*kG*dG*dA*dG*dG*dT*dT*dT*dG*dG*dG*kT*kT*kG; antisense) [compound 799526]”: 12%; for “799527 (kG*kT*k[5mC]*dA*dA*dA*dG*dG*dA*dG*dG*dT*dT*kT*kG*kG; antisense) [compound 799527]”: 4%; for “799528 (k[5mC]*kG*kG*dA*dT*dA*d[5mC]*d[5mC]*dA*dG*dG*dT*dG*kG*kT*kT; antisense) [compound 799528]”: 17%.
The same measure, in the same setting: the same measure for “799529 (kG*kA*kA*dT*dT*dT*d[5mC]*dT*d[5mC]*dT*dT*dG*d[5mC]*kA*kT*kT; antisense) [compound 799529]”: 27%; for “799530 (kG*k[5mC]*kT*d[5mC]*dA*dA*dT*dG*dA*dG*dA*d[5mC]*dT*kG*kG*k[5mC]; antisense) [compound 799530]”: 34%.
As to “799531 (k[5mC]*kT*kT*dT*dA*dG*d[5mC]*dA*dA*dT*dT*dT*d[5mC]*kA*kA*kA; antisense) [compound 799531]”, the “% Inhibition” value stood at 32%.

Staying with this series, now noted: Hep3B cells, electroporation with 10,000 nM antisense oligonucleotide, approximately 24 hours, SMAD7 mRNA by RT-PCR (RTS5062), relative to untreated control cells.
Turning to “799510 (antisense kG*kA*kG*dA*dA*dA*d[5mC]*dA*dG*dT*d[5mC]*dT*d[5mC]*k[5mC]*kA*k[5mC]) [compound 799510]”, the “% Inhibition” value was 57%.
The same measure, in the same setting: the result for “799512 (antisense kG*kT*kT*dA*dA*dT*dG*dA*dG*dG*dA*dT*dA*kA*kT*kG) [compound 799512]” reads 16%; that for “799513 (antisense kT*kA*k[5mC]*d[5mC]*dT*dT*dT*dA*dG*dA*dT*dT*dG*k[5mC]*kA*kT) [compound 799513]”, 66%.

Still in this series, the particulars now being: Hep3B cells, electroporation, 10,000 nM antisense oligonucleotide, approximately 24 hours, RTS5062, relative to untreated control cells.
“799515 (antisense k[5mC]*k[5mC]*k[5mC]*d[5mC]*dA*dG*dA*d[5mC]*d[5mC]*dT*dG*d[5mC]*dT*kA*kA*kG) [compound 799515]”: the “% inhibition of SMAD7 mRNA expression” value turned out to be 38%.
In the case of “799516 (antisense k[5mC]*kA*k[5mC]*d[5mC]*dA*dG*dA*dT*d[5mC]*dA*dA*dG*dA*k[5mC]*kA*kG) [compound 799516]”, the “% inhibition of SMAD7 mRNA expression” value was 0%.
Regarding “799517 (antisense k[5mC]*kT*kT*dA*dA*dG*dT*dA*dG*dA*dG*d[5mC]*dA*kA*kA*kG) [compound 799517]”, the “% inhibition of SMAD7 mRNA expression” value came out at 0%.
On the same count and under the same terms, the same measure for “799518 (antisense kA*k[5mC]*kT*dT*dA*dA*dG*dT*dA*dG*dA*dG*d[5mC]*kA*kA*kA) [compound 799518]”: 38%; for “799519 (antisense kA*kA*k[5mC]*dT*dT*dA*dA*dG*dT*dA*dG*dA*dG*k[5mC]*kA*kA) [compound 799519]”: 44%.
On the same count and under the same terms, the result for “799520 (antisense kG*kA*kT*dT*dG*dA*dT*dG*dT*dT*dG*dG*dG*k[5mC]*kT*kG) [compound 799520]” reads 51%.
On the same count and under the same terms, the result for “799521 (antisense kT*kA*kA*dA*dG*dA*d[5mC]*dA*dG*dG*dT*dT*dT*k[5mC]*k[5mC]*k[5mC]) [compound 799521]” reads 57%; that for “799522 (antisense kT*kT*kT*dA*dA*dA*dG*dA*d[5mC]*dA*dG*dG*dT*kT*kT*k[5mC]) [compound 799522]”, 32%; that for “799523 (antisense kG*kG*k[5mC]*dA*dG*dA*dA*dG*dG*d[5mC]*dT*d[5mC]*dT*k[5mC]*kT*k[5mC]) [compound 799523]”, 28%.
